{"source": "patent US12187723B2", "about": "(BRISTOL-MYERS SQUIBB COMPANY, priority 2019, dated 2025)"}
{"target": "T1, human TLR7 (Homo sapiens, UniProt Q9NYK1)", "T1 construct": "host or cells: HEK-Blue cells", "T1 sequence (Q9NYK1 27-1049)": "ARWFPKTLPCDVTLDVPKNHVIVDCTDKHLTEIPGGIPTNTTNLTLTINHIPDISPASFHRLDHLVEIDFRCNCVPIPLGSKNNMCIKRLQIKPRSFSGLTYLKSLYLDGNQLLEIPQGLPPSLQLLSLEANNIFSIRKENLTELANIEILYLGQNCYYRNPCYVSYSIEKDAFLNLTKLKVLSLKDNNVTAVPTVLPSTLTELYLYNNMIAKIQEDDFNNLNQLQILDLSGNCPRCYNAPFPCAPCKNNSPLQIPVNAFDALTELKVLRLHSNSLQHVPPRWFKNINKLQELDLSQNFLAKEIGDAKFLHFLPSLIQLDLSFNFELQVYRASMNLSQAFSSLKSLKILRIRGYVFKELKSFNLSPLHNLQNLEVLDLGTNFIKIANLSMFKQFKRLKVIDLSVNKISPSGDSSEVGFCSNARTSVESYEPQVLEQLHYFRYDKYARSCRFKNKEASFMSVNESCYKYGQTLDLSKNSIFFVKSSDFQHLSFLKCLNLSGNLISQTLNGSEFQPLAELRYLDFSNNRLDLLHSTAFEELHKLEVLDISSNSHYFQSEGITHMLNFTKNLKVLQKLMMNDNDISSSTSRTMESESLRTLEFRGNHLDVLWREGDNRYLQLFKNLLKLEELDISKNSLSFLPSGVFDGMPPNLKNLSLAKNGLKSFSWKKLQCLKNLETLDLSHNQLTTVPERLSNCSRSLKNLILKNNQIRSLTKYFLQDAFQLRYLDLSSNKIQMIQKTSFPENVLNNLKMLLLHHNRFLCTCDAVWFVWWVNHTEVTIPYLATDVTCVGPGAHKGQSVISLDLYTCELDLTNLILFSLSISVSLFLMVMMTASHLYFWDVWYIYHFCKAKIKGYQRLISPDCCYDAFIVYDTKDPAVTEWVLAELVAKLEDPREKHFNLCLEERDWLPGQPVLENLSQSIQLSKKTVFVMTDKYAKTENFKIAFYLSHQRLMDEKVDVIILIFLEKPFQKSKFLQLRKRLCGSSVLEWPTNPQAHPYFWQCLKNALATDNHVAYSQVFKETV", "experiment": "TLR7 inhibition reporter assay (HEK-Blue SEAP)", "type": "cell-based", "conditions": "HEK-Blue cells overexpressing human TLR7, gardiquimod 7.5 μM, 22 hour incubation", "outline": "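In this cell reporter format, test compounds at 0.05 nM-50 μM final incubate 22 h with seeded cells (TLR7 15000, TLR8 20,000 per well). SEAP read-out by HEK-Blue Detection medium yields % inhibition relative to agonist/DMSO and known-inhibitor wells.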", "units": {"IC50": "nM"}}
{"compound": "Cc1cc2c(cc1-c1cc(C)c3ncnn3c1)[nH]c(=O)n2[C@@H]1CCCN(CCC(F)(F)F)C1", "note": "[Example 29, (R)-6-methyl-5-(8-methyl-[1,2,4]triazolo[1,5-a]pyridin-6-yl)-1-(1-(3,3,3-trifluoropropyl)piperidin-3-yl)-1,3-dihydro-2H-benzo[d]imidazol-2-one]", "IC50": 211}
{"compound": "Cc1cc2c(cc1-c1cc(C)c3ncnn3c1)[nH]c(=O)n2[C@H]1CC[C@@H](NC2CCOCC2)CC1", "note": "[Example 30, 6-methyl-5-(8-methyl-[1,2,4]triazolo[1,5-a]pyridin-6-yl)-1-((1s,4s)-4-((tetrahydro-2H-pyran-4-yl)amino)cyclohexyl)-1,3-dihydro-2H-benzo[d]imidazol-2-one]", "IC50": 8.23}
{"compound": "Cc1cc2c(cc1-c1cc(C)c3ncnn3c1)[nH]c(=O)n2[C@H]1CC[C@@H](NCCC(F)(F)F)CC1", "note": "[Example 31]", "IC50": 11.1}
{"compound": "COc1cc(-c2cc3[nH]c(=O)n(C4CCC(N5CCSCC5)CC4)c3cc2C(C)C)cn2ncnc12", "note": "(centres unmarked) [Example 250, 6-isopropyl-5-(8-methoxy-[1,2,4]triazolo[1,5-a]pyridin-6-yl)-1-(4-thiomorpholinocyclohexyl)-1,3-dihydro-2H-benzo[d]imidazol-2-one]", "IC50": 1.99}
{"compound": "COc1cc(-c2cc3[nH]c(=O)n(C4CCC(N5CCSCC5)CC4)c3cc2C(C)C)cn2ncnc12", "note": "(centres unmarked) [Example 251, 6-isopropyl-5-(8-methoxy-[1,2,4]triazolo[1,5-a]pyridin-6-yl)-1-(4-thiomorpholinocyclohexyl)-1,3-dihydro-2H-benzo[d]imidazol-2-one]", "IC50": 3.54}
{"compound": "COc1cc(-c2cc3[nH]c(=O)n(C4CCC(N5CC6(COC6)C5)CC4)c3cc2C(C)C)cn2ncnc12", "note": "(centres unmarked) [Example 254, 1-(4-(2-oxa-6-azaspiro[3.3]heptan-6-yl)cyclohexyl)-6-isopropyl-5-(8-methoxy-[1,2,4]triazolo[1,5-a]pyridin-6-yl)-1,3-dihydro-2H-benzo[d]imidazol-2-one]", "IC50": 6.81}
{"compound": "COCCNC1CCC(n2c(=O)[nH]c3cc(-c4cn5ncnc5c(OC)c4C)c(C(C)C)cc32)CC1", "note": "(centres unmarked) [Example 257]", "IC50": 6.97}
{"compound": "COCCNC1CCC(n2c(=O)[nH]c3cc(-c4cn5ncnc5c(OC)c4C)c(C(C)C)cc32)CC1", "note": "(centres unmarked) [Example 258]", "IC50": 4.25}
{"compound": "COc1c(C)c(-c2cc3[nH]c(=O)n(C4CCC(N5CC(OC)C5)CC4)c3cc2C(C)C)cn2ncnc12", "note": "(centres unmarked) [Example 265, 6-isopropyl-5-(8-methoxy-7-methyl-[1,2,4]triazolo[1,5-a]pyridin-6-yl)-1-(4-(3-methoxyazetidin-1-yl)cyclohexyl)-1,3-dihydro-2H-benzo[d]imidazol-2-one]", "IC50": 7.18}
{"compound": "COc1c(C)c(-c2cc3[nH]c(=O)n(C4CCC(N5CC(OC)C5)CC4)c3cc2C(C)C)cn2ncnc12", "note": "(centres unmarked) [Example 266, 6-isopropyl-5-(8-methoxy-7-methyl-[1,2,4]triazolo[1,5-a]pyridin-6-yl)-1-(4-(3-methoxyazetidin-1-yl)cyclohexyl)-1,3-dihydro-2H-benzo[d]imidazol-2-one]", "IC50": 13.4}
{"compound": "Cc1c(-c2cc3[nH]c(=O)n(C4CCC(N5CCCOCC5)CC4)c3cc2C(C)C)cn2ncnc2c1C", "note": "(centres unmarked) [Example 271, 1-(4-(1,4-oxazepan-4-yl)cyclohexyl)-5-(7,8-dimethyl-[1,2,4]triazolo[1,5-a]pyridin-6-yl)-6-isopropyl-1,3-dihydro-2H-benzo[d]imidazol-2-one]", "IC50": 6.06}
{"compound": "Cc1c(-c2cc3[nH]c(=O)n(C4CCC(N5CCCOCC5)CC4)c3cc2C(C)C)cn2ncnc2c1C", "note": "(centres unmarked) [Example 272, 1-(4-(1,4-oxazepan-4-yl)cyclohexyl)-5-(7,8-dimethyl-[1,2,4]triazolo[1,5-a]pyridin-6-yl)-6-isopropyl-1,3-dihydro-2H-benzo[d]imidazol-2-one]", "IC50": 5.37}
{"compound": "Cc1c(-c2cc3[nH]c(=O)n(C4CCC(N5CCCC(F)C5)CC4)c3cc2C(C)C)cn2ncnc2c1C", "note": "(centres unmarked) [Example 273, 5-(7,8-dimethyl-[1,2,4]triazolo[1,5-a]pyridin-6-yl)-1-(4-(3-fluoropiperidin-1-yl)cyclohexyl)-6-isopropyl-1,3-dihydro-2H-benzo[d]imidazol-2-one]", "IC50": 9.22}
{"compound": "Cc1c(-c2cc3[nH]c(=O)n(C4CCC(N5CCCC(F)C5)CC4)c3cc2C(C)C)cn2ncnc2c1C", "note": "(centres unmarked) [Example 274, 5-(7,8-dimethyl-[1,2,4]triazolo[1,5-a]pyridin-6-yl)-1-(4-(3-fluoropiperidin-1-yl)cyclohexyl)-6-isopropyl-1,3-dihydro-2H-benzo[d]imidazol-2-one]", "IC50": 6.78}
{"compound": "Cc1c(-c2cc3[nH]c(=O)n(C4CCC(N5CC(F)C5)CC4)c3cc2C(C)C)cn2ncnc2c1C", "note": "(centres unmarked) [Example 279, 5-(7,8-dimethyl-[1,2,4]triazolo[1,5-a]pyridin-6-yl)-1-(4-(3-fluoroazetidin-1-yl)cyclohexyl)-6-isopropyl-1,3-dihydro-2H-benzo[d]imidazol-2-one]", "IC50": 2.89}
{"compound": "Cc1c(-c2cc3[nH]c(=O)n(C4CCC(N5CC(F)C5)CC4)c3cc2C(C)C)cn2ncnc2c1C", "note": "(centres unmarked) [Example 280, 5-(7,8-dimethyl-[1,2,4]triazolo[1,5-a]pyridin-6-yl)-1-(4-(3-fluoroazetidin-1-yl)cyclohexyl)-6-isopropyl-1,3-dihydro-2H-benzo[d]imidazol-2-one]", "IC50": 4.91}
{"compound": "COc1cc(-c2cc3[nH]c(=O)n(C4CCC(N5CCC(OC)C5)CC4)c3cc2C(C)C)cn2ncnc12", "note": "(centres unmarked) [Example 284, 6-isopropyl-5-(8-methoxy-[1,2,4]triazolo[1,5-a]pyridin-6-yl)-1-(4-(3-methoxypyrrolidin-1-yl)cyclohexyl)-1,3-dihydro-2H-benzo[d]imidazol-2-one]", "IC50": 0.7}
{"compound": "COc1cc(-c2cc3[nH]c(=O)n(C4CCC(N5CCC(OC)C5)CC4)c3cc2C(C)C)cn2ncnc12", "note": "(centres unmarked) [Example 285, 6-isopropyl-5-(8-methoxy-[1,2,4]triazolo[1,5-a]pyridin-6-yl)-1-(4-(3-methoxypyrrolidin-1-yl)cyclohexyl)-1,3-dihydro-2H-benzo[d]imidazol-2-one]", "IC50": 0.66}
{"compound": "COc1cc(-c2cc3[nH]c(=O)n(C4CCC(N5CC[C@H](F)C5)CC4)c3cc2C(C)C)cn2ncnc12", "note": "(stereo partly drawn) [Example 286, (S)-1-(4-(3-fluoropyrrolidin-1-yl)cyclohexyl)-6-isopropyl-5-(8-methoxy-[1,2,4]triazolo[1,5-a]pyridin-6-yl)-1,3-dihydro-2H-benzo[d]imidazol-2-one]", "IC50": 0.7}
{"compound": "COc1cc(-c2cc3[nH]c(=O)n(C4CCC(N5CC[C@H](F)C5)CC4)c3cc2C(C)C)cn2ncnc12", "note": "(stereo partly drawn) [Example 287, (S)-1-(4-(3-fluoropyrrolidin-1-yl)cyclohexyl)-6-isopropyl-5-(8-methoxy-[1,2,4]triazolo[1,5-a]pyridin-6-yl)-1,3-dihydro-2H-benzo[d]imidazol-2-one]", "IC50": 1.53}
